The target in data set [1] is T1, Oat3 (organic anion transporter 3) (Mus musculus, UniProt O88909).
T1 sequence (O88909 whole entry): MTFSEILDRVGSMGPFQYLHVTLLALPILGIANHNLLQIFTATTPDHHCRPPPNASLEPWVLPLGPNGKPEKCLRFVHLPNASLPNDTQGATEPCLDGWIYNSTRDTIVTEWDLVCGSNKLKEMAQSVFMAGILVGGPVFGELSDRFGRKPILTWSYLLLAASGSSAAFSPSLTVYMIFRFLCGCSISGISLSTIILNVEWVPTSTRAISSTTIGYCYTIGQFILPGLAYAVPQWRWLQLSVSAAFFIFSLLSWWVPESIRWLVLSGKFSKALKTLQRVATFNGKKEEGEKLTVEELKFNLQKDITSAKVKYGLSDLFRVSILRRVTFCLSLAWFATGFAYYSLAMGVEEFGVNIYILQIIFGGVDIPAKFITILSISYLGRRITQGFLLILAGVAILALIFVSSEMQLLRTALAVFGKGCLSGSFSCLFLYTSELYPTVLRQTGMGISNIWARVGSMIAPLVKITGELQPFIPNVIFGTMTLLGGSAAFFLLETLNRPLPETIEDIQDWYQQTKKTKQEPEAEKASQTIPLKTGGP
Kind of data set: TP_TRANSPORTER: inhibition of PHA uptake (PHA: 1000uM) in mOat3-expressing oocytes. It counts as functional, cell-based, Oocyte. Details: scale not given: the % may be the effect or the level left. To be noted: probe PHA (1000 uM).

Data set [2] has as its target T2, Organic anion transporter 3 (Mus musculus, UniProt O88909).
T2 sequence (O88909 whole entry): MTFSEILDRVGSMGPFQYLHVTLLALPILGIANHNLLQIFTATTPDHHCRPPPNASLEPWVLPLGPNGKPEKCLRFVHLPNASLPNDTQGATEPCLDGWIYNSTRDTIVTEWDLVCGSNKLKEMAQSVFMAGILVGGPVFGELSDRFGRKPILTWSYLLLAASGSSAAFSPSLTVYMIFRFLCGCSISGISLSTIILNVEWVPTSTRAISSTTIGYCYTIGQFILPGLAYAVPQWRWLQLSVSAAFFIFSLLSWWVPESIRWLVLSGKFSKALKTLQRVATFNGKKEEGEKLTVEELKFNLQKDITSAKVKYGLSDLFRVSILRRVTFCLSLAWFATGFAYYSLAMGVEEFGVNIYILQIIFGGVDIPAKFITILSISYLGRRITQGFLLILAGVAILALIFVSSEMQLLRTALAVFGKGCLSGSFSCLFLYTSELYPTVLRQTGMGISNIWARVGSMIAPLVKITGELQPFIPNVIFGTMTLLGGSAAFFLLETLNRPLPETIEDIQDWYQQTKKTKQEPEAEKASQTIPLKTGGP
Kind of data set: (§1) TP_TRANSPORTER: uptake in mOat3-expressing oocytes. In kind it is functional, cell-based. To be noted: oocyte.

In data set [3] the target is T1, Oat3 (organic anion transporter 3). Description: TP_TRANSPORTER: inhibition of PHA uptake (PHA: 1000uM) by P-aminohippuric acid at a concentration of 10uM in mOat3-expressing oocytes. In kind it is functional, cell-based, Oocyte. Conditions: probe PHA (1000 uM), read-out: Activity. Details: scale not given: the % may be the effect or the level left.
Substrate in data set [4]: C[N+](C)(C)C[C@H](O)CC(=O)[O-]
The data set is described as §1. It counts as functional, cell-based, Oocyte.

Substrate in data set [5]: Sc1ncnc2nc[nH]c12
Described as §1. In kind it is functional, cell-based, Oocyte.

Substrate in data set [6]: O=c1[nH]cc(F)c(=O)[nH]1
The data set is described as §1. It counts as functional, cell-based, Oocyte.

`CCOC(=O)[C@H](CCc1ccccc1)N[C@@H](C)C(=O)N1CCC[C@H]1C(=O)O` displayed an Activity in data set [1] of 45%.
As for `Oc1ncnc2[nH]ncc12` [ALLOPURINOL], the Activity result in data set [2] is “substrate []”.
In the case of `Nc1ccc(C(=O)NCC(=O)O)cc1` [AMINOHIPPURIC ACID], in data set [2], the Activity entry was “substrate []”. The activity at 10 µM in data set [3] worked out at 20%.
With `CN/C(=N/CCSCc1nc[nH]c1C)NC#N` [CIMETIDINE], the Activity in data set [1] is 65%.
With `CCCCC[C@H](O)/C=C/[C@H]1[C@H](O)CC(=O)[C@@H]1C/C=C\CCCC(=O)O` [DINOPROSTONE], the Activity result in data set [2] was “substrate []”.
The same measure, in the same setting: under `CCCCC[C@H](O)/C=C/[C@@H]1[C@@H](C/C=C\CCCC(=O)O)[C@@H](O)C[C@H]1O` [DINOPROST] stands “substrate []”.
With `C[C@]12CC[C@@H]3c4ccc(OS(=O)(=O)O)cc4CC[C@H]3[C@@H]1CCC2=O` [ESTRONE SULFURIC ACID], the Activity result in data set [2] is “substrate []”.
Regarding `CC(C)Cc1ccc(C(C)C(=O)O)cc1` (stereo not drawn) [IBUPROFEN], the Activity in data set [1] worked out at 80%.
Same read-out and setting: under `CN1C(C(=O)Nc2ccccn2)=C(O)c2sccc2S1(=O)=O` [TENOXICAM] stands 55%.

B1: Organic anion transporter 3 (Mus musculus) (protein)
chain: MTFSEILDRVGSMGPFQYLHVTLLALPILGIANHNLLQIFTATTPDHHCRPPPNASLEPWVLPLGPNGKPEKCLRFVHLPNASLPNDTQGATEPCLDGWIYNSTRDTIVTEWDLVCGSNKLKEMAQSVFMAGILVGGPVFGELSDRFGRKPILTWSYLLLAASGSSAAFSPSLTVYMIFRFLCGCSISGISLSTIILNVEWVPTSTRAISSTTIGYCYTIGQFILPGLAYAVPQWRWLQLSVSAAFFIFSLLSWWVPESIRWLVLSGKFSKALKTLQRVATFNGKKEEGEKLTVEELKFNLQKDITSAKVKYGLSDLFRVSILRRVTFCLSLAWFATGFAYYSLAMGVEEFGVNIYILQIIFGGVDIPAKFITILSISYLGRRITQGFLLILAGVAILALIFVSSEMQLLRTALAVFGKGCLSGSFSCLFLYTSELYPTVLRQTGMGISNIWARVGSMIAPLVKITGELQPFIPNVIFGTMTLLGGSAAFFLLETLNRPLPETIEDIQDWYQQTKKTKQEPEAEKASQTIPLKTGGP
A word on the Km: it is the substrate concentration at which the rate is half of its maximum. Regarding B1, the Km in data set [4] was found to be 0.0619 µM; in data set [5], 4.01 µM; in data set [6], 0.0539 µM.
